system: HCV genotype-1a variant with glutamine 30 changed to glutamate in the NS5A protein; format: cell-based; details: test compound titrated with BMS-790052 fixed at 200 nM; genotype 1a Q30E replicon
Method in brief: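 Synergy was assessed by combining several fixed amounts of an NS5A-targeting compound with a titration of the second compound of interest.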

SMILES	Fold-Synergistic 1a (Q30E)
CC(C)[C@H](NC(=O)C1(C)CCCCC1)c1ncc(-c2ccc3c(c2)Cc2cc(-c4cnc([C@@H](NC(=O)C5(C)CCCCC5)C(C)C)[nH]4)ccc2-3)[nH]1.O=C(O)C(F)(F)F [Compound N-69]	>100 fold
CC1(C(=O)N[C@H](c2nc(-c3ccc(-c4ccc(-c5c[nH]c([C@@H](NC(=O)C6(C)COC6)C(C)(C)C)n5)cc4)cc3)c[nH]2)C(C)(C)C)COC1 [Compound N-113]	>100 fold
CC1(C)CCN(C(=O)C2(N3CCC(F)(F)CC3)COC2)C1c1nc(-c2ccc(-c3ccc(-c4c[nH]c(C5N(C(=O)C6(N7CCC(F)(F)CC7)COC6)CCC5(C)C)n4)cc3)cc2)c[nH]1 (stereo not shown) [Compound W-220]	>10 fold
O=C(c1ccc(-c2ccccc2)cc1)N1CCC[C@H]1c1ncc(-c2ccc(-c3ccc(-c4cnc([C@@H]5CCCN5C(=O)c5ccc(-c6ccccc6)cc5)[nH]4)cc3)cc2)[nH]1 [Compound S-117]	>10 fold
Cc1cc(C(=O)N[C@H](c2ncc(-c3ccc(-c4ccc(-c5cnc([C@@H](NC(=O)c6cc(C)oc6C)C(C)C)[nH]5)cc4)cc3)[nH]2)C(C)C)c(C)o1 [Compound S-98]	>100 fold
CC(C)[C@H](NC(=O)[C@H]1Cc2ccccc21)c1ncc(-c2ccc(-c3ccc(-c4cnc([C@@H](NC(=O)[C@H]5Cc6ccccc65)C(C)C)[nH]4)cc3)cc2)[nH]1 [Compound P-109]	>100 fold
CC(C)(C)C(=O)N[C@H](c1ncc(C#Cc2ccc3cc(-c4cnc([C@@H](NC(=O)C(C)(C)C)C(C)(C)C)[nH]4)ccc3c2)[nH]1)C(C)(C)C [Compound B2]	>100 fold
CC(C)[C@H](NC(=O)C(=O)c1ccccc1OC(F)F)c1ncc(-c2ccc(-c3ccc(-c4cnc([C@@H](NC(=O)C(=O)c5ccccc5OC(F)F)C(C)C)[nH]4)cc3)cc2)[nH]1 [Compound P-122]	>100 fold
CC(C)(C)[C@H](NC(=O)C(C)(C)n1cnc(C(F)(F)F)c1)c1nc(-c2ccc(-c3ccc(-c4c[nH]c([C@@H](NC(=O)C(C)(C)n5cnc(C(F)(F)F)c5)C(C)(C)C)n4)cc3)cc2)c[nH]1 [Compound W-150]	>100 fold
CC(C)(C)[C@H](NC(=O)C1CCCCC1CO)c1nc(-c2ccc(-c3ccc(-c4c[nH]c([C@@H](NC(=O)C5CCCCC5CO)C(C)(C)C)n4)cc3)cc2)c[nH]1 (single isomer, unassigned) [Compound L-141c]	>100 fold
CC1([C@H](NC(=O)C2(N3CCC(F)(F)CC3)COC2)c2nc(-c3ccc(-c4ccc(-c5c[nH]c([C@@H](NC(=O)C6(N7CCC(F)(F)CC7)COC6)C6(C)CC6)n5)cc4)cc3)c[nH]2)CC1 [Compound W-62]	>100 fold
CC1(C)C2CCC(C(=O)N[C@H](c3nc(-c4ccc(-c5ccc(-c6c[nH]c([C@@H](NC(=O)C78CCC(C7)C(C)(C)C8O)C7(C)CC7)n6)cc5)cc4)c[nH]3)C3(C)CC3)(C2)C1O (single isomer, unassigned) [Compound Y-118]	>100 fold
CC1(C(=O)N[C@H](c2nc(-c3ccc(-c4ccc(-c5c[nH]c([C@@H](NC(=O)C6(C)CCCCC6O)C(C)(C)C)n5)cc4)cc3)c[nH]2)C(C)(C)C)CCCCC1O (single isomer, unassigned) [Compound Y-94]	>100 fold
CC(O)C1(C(=O)N[C@H](c2nc(-c3ccc(-c4ccc(-c5c[nH]c([C@@H](NC(=O)C6(C(C)O)CCCCC6)C(C)(C)C)n5)cc4)cc3)c[nH]2)C(C)(C)C)CCCCC1 (single isomer, unassigned) [Compound N-152C]	>100 fold
CO[C@@H](C(=O)N[C@H](c1nc(-c2ccc(-c3ccc(-c4c[nH]c([C@@H](NC(=O)[C@H](OC)c5ccccc5)C(C)(C)C)n4)cc3)cc2)c[nH]1)C(C)(C)C)c1ccccc1 [Compound P-15]	>100 fold
CC(C)(C)[C@H](NC(=O)c1ccccc1F)c1nc(-c2ccc(-c3ccc(-c4c[nH]c([C@@H](NC(=O)c5ccccc5F)C(C)(C)C)n4)cc3)cc2)c[nH]1 [Compound P-23]	>100 fold
CC(C)[C@H](NC(=O)C1(C#N)CC1)c1ncc(-c2ccc(-c3ccc(-c4cnc([C@@H](NC(=O)C5(C#N)CC5)C(C)C)[nH]4)cc3)cc2)[nH]1 [Compound S-54]	>100 fold
CC1(C(=O)N[C@H](c2ncc(-c3ccc(-c4ccc(-c5cnc([C@@H](NC(=O)C6(C)CCCCC6O)C(C)(C)C)[nH]5)cc4)cc3)[nH]2)C(C)(C)C)CCCCC1O (stereo partly shown) [Compound Y-97]	>100 fold
CC(C)[C@H](NC(=O)C(=O)C(C)(C)C(F)F)c1ncc(-c2ccc(-c3ccc(-c4cnc([C@@H](NC(=O)C(=O)C(C)(C)C(F)F)C(C)C)[nH]4)cc3)cc2)[nH]1 [Compound P-124]	>100 fold
CC(C)[C@H](NC(=O)CC1CCOCC1)c1ncc(-c2ccc(-c3ccc(-c4cnc([C@@H](NC(=O)CC5CCOCC5)C(C)C)[nH]4)cc3)cc2)[nH]1 [Compound P-58]	>10 fold

SMILES	Fold-Synergistic 1a (Q30E)
COc1ccc(C(=O)N[C@H](c2nc(-c3ccc(-c4ccc(-c5c[nH]c([C@@H](NC(=O)c6ccc(OC)cc6)C(C)(C)C)n5)cc4)cc3)c[nH]2)C(C)(C)C)cc1 [Compound N-54]	>100 fold
CC(C)[C@H](NC(=O)c1ccc(C#N)s1)c1ncc(-c2ccc(-c3ccc(-c4cnc([C@@H](NC(=O)c5ccc(C#N)s5)C(C)C)[nH]4)cc3)cc2)[nH]1 [Compound P-101]	>100 fold
C#CCOC(=O)N[C@H](c1ncc(-c2ccc(-c3ccc(-c4cnc([C@@H](NC(=O)OCC#C)C(C)C)[nH]4)cc3)cc2)[nH]1)C(C)C [Compound S-212]	>10 fold
CC1CC(C(=O)NC(c2nc(-c3ccc(-c4ccc(-c5c[nH]c(C(NC(=O)C6CC(C)CN6C(=O)OC(C)(C)C)C6(C)CC6)n5)cc4)cc3)c[nH]2)C2(C)CC2)N(C(=O)OC(C)(C)C)C1 (stereo not shown) [Compound W-71]	>100 fold
CC1(C(=O)N[C@H](c2nc(-c3ccc(-c4ccc(-c5c[nH]c([C@@H](NC(=O)C6(C)CCCCC6O)C(C)(C)C)n5)cc4)cc3)c[nH]2)C(C)(C)C)CCCCC1O (single isomer, unassigned) [Compound Y-93]	>100 fold
CC(C)(C)C(NC(=O)C1CCCN1CC(F)(F)F)c1nc(-c2ccc(-c3ccc(-c4c[nH]c(C(NC(=O)C5CCCN5CC(F)(F)F)C(C)(C)C)n4)cc3)cc2)c[nH]1 [Compound L-52]	>100 fold
COC1CC(C(=O)NC(c2nc(-c3ccc(-c4ccc(-c5c[nH]c(C(NC(=O)C6CC(OC)C6)C(C)(C)C)n5)cc4)cc3)c[nH]2)C(C)(C)C)C1 [Compound L-54]	>100 fold
CC(C)(C)C(=O)N[C@H]1CCC[C@H]1c1nc(-c2ccc(-c3ccc(-c4c[nH]c([C@@H]5CCC[C@@H]5NC(=O)C(C)(C)C)n4)cc3)cc2)c[nH]1 [Compound L-107]	>100 fold
CC1(C(NC(=O)C(C)(C)C(O)C2(C)CC2)c2nc(-c3ccc(-c4ccc(-c5c[nH]c(C(NC(=O)C(C)(C)C(O)C6(C)CC6)C6(C)CC6)n5)cc4)cc3)c[nH]2)CC1 (mixture of isomers) [Compound N-156]	>100 fold
CC1(C)C2CCC(C(=O)N[C@H](c3nc(-c4ccc(-c5ccc(-c6c[nH]c([C@@H](NC(=O)C78CCC(C7)C(C)(C)C8O)C(C)(C)C)n6)cc5)cc4)c[nH]3)C(C)(C)C)(C2)C1O (single isomer, unassigned) [Compound Y-107]	>100 fold
CC(C)(C)OC(=O)N1CCC(C(=O)N[C@H](c2nc(-c3ccc(-c4ccc(-c5c[nH]c([C@@H](NC(=O)C6CCN(C(=O)OC(C)(C)C)CC6)C(C)(C)C)n5)cc4)cc3)c[nH]2)C(C)(C)C)CC1 [Compound S-264]	>100 fold
CC1(C)COC(C)(C(=O)N[C@H](c2nc(-c3ccc(-c4ccc(-c5c[nH]c([C@@H](NC(=O)C6(C)OCC(C)(C)CO6)C(C)(C)C)n5)cc4)cc3)c[nH]2)C(C)(C)C)OC1 [Compound P-154]	>100 fold
O=C(NC(c1nc(-c2ccc(-c3ccc(-c4c[nH]c(C(NC(=O)C5CCC(F)(F)CC5)C5(C(F)(F)F)CC5)n4)cc3)cc2)c[nH]1)C1(C(F)(F)F)CC1)C1CCC(F)(F)CC1.O=C(O)C(F)(F)F (single isomer, unassigned) [Compound N-109B]	>100 fold
Cc1ccccc1CC(=O)N[C@H](c1ncc(-c2ccc(-c3ccc(-c4cnc([C@@H](NC(=O)Cc5ccccc5C)C(C)C)[nH]4)cc3)cc2)[nH]1)C(C)C [Compound S-39]	>100 fold
CC(C)(C)[C@H](NC(=O)C1(NC(=O)CC2CC2)CCCCC1)c1nc(-c2ccc(-c3ccc(-c4c[nH]c([C@@H](NC(=O)C5(NC(=O)CC6CC6)CCCCC5)C(C)(C)C)n4)cc3)cc2)c[nH]1 [Compound W-276]	>100 fold
CC(C)(CF)[C@H](NC(=O)C1CCC(F)(F)CC1)c1ncc(-c2ccc(-c3ccc(-c4cnc([C@@H](NC(=O)C5CCC(F)(F)CC5)C(C)(C)CF)[nH]4)cc3)cc2)[nH]1 [Compound Y-69]	>100 fold
CC(C)[C@H](NC(=O)C1CC(F)(F)C1)c1ncc(-c2ccc3c(c2)Cc2cc(-c4cnc([C@@H](NC(=O)C5CC(F)(F)C5)C(C)C)[nH]4)ccc2-3)[nH]1.O=C(O)C(F)(F)F [Compound N-71]	>100 fold
CC(C)(C)[C@H](NC(=O)CC1CCCCC1)c1nc(-c2ccc(-c3ccc(-c4c[nH]c([C@@H](NC(=O)CC5CCCCC5)C(C)(C)C)n4)cc3)cc2)c[nH]1 [Compound N-50]	>100 fold
CC1(C)CCN(C(=O)c2ccc(-c3ccccc3)cc2)C1c1nc(-c2ccc(-c3ccc(-c4c[nH]c(C5N(C(=O)c6ccc(-c7ccccc7)cc6)CCC5(C)C)n4)cc3)cc2)c[nH]1 (stereo not shown) [Compound W-227]	>100 fold
CCOc1ccccc1C(=O)N[C@H](c1nc(-c2ccc(-c3ccc(-c4c[nH]c([C@@H](NC(=O)c5ccccc5OCC)C(C)(C)C)n4)cc3)cc2)c[nH]1)C(C)(C)C [Compound P-29]	>100 fold

— US20160158200A1, “Combinations of Hepatitis C Virus Inhibitors” (priority 2013, published 2016)
